Values quoted from earlier work as cited in the PKSmart pharmacokinetics tables (Seal et al. 2025).

Assay: Lombardo, Berellini, Obach 2018, Drug Metab Dispos 46:1466, doi 10.1124/dmd.118.082966
Conditions: human; for MRT / Vd / clearance / half-life: in vivo, iv; for fraction unbound: plasma

| SMILES | MRT | Vd | clearance | half-life | fraction unbound |
| --- | --- | --- | --- | --- | --- |
| COc1c(C)cc2c(c1O)[C@@H]1[C@@H]3Cc4c(OC(C)=O)c(C)c5c(c4[C@H](CNC(=O)/C=C/c4cccc(C(F)(F)F)c4)N3[C@@H](O)[C@H](C2)N1C)OCO5 | 17.5 h | 12.6 L/kg | 12 mL/min/kg | 22.2 h |  |
| CCc1cc2c(cc1N1CCC(N3CCOCC3)CC1)C(C)(C)c1[nH]c3cc(C#N)ccc3c1C2=O | 13.8 h | 6.35 L/kg | 7.69 mL/min/kg | 11.7 h | 0.003 |
| Cn1cc(NC(=O)Nc2cc(C(=O)Nc3cc(C(=O)Nc4ccc5cc(S(=O)(=O)O)cc(S(=O)(=O)O)c5c4)n(C)c3)n(C)c2)cc1C(=O)Nc1cc(C(=O)Nc2ccc3cc(S(=O)(=O)O)cc(S(=O)(=O)O)c3c2)n(C)c1 | 960 h | 0.27 L/kg | 0.0047 mL/min/kg | 730 h |  |
| COc1ccc2[nH]c3c(c2c1)CCN[C@]31CS[C@@H]2c3c(OC(C)=O)c(C)c4c(c3[C@H](COC1=O)N1[C@@H]2[C@H]2c3c(cc(C)c(OC)c3O)C[C@@H]([C@@H]1O)N2C)OCO4 | 44 h | 7.3 L/kg | 2.76 mL/min/kg | 50.7 h |  |
| O=S(=O)(O)c1cc(O)ccc1O | 2.41 h | 0.12 L/kg | 0.87 mL/min/kg | 2.01 h |  |
| Nc1ccn([C@@H]2CO[C@H](CO)S2)c(=O)n1 | 3.6 h | 0.84 L/kg | 3.9 mL/min/kg | 8.92 h |  |
| C[C@@H](N)[C@H]1CC[C@@H](N)[C@@H](O[C@@H]2[C@@H](N)[C@@H](O)[C@@H](O)[C@@H](N(C)C(=O)CN)[C@H]2O)O1 | 3.3 h | 0.27 L/kg | 1.37 mL/min/kg | 2.9 h |  |
| CN(C)N=Nc1ccc(C(=O)O)cc1 | 3 h | 0.25 L/kg | 1.3 mL/min/kg | 2.5 h |  |
| CON=C(C(=O)NC1C(=O)N2C(C(=O)O)=C(CSc3nc(=O)c(O)nn3C)CS[C@H]12)c1csc(N)n1 (stereo not given in full) | 9.6 h | 0.12 L/kg | 0.22 mL/min/kg | 7.6 h | 0.1 |
| CC(N)CCCC(C)(C)O (stereo not given) | 3.24 h | 2.14 L/kg | 10.7 mL/min/kg | 2.5 h |  |
| NNC(=O)c1ccncc1 | 1.8 h | 0.82 L/kg | 7.4 mL/min/kg |  | 1 |
| CC(C)=CCN1Cc2cc(Cl)cc3[nH]c(=S)n(c23)C[C@@H]1C | 35.2 h | 22 L/kg | 10.4 mL/min/kg | 26 h |  |
| C=C(Br)C(=O)Nc1cc(C(=O)Nc2cc(C(=O)Nc3cc(C(=O)Nc4cc(C(=O)NCCN=C(N)N)n(C)c4)n(C)c3)n(C)c2)n(C)c1 | 1.2 h | 0.36 L/kg | 5.15 mL/min/kg | 8.3 h |  |
| C[C@@H](OC[C@@]1(c2ccccc2)CC[C@]2(CCC(=O)N2)CN1)c1cc(C(F)(F)F)cc(C(F)(F)F)c1 |  |  | 0.38 mL/min/kg | 148 h | 0.002 |
| CN1Cc2c(N)cccc2C(c2ccccc2)C1 (stereo not given) | 4.5 h | 6 L/kg | 22 mL/min/kg | 6.5 h |  |
| CCCCN1CCCC1C(=O)Nc1c(C)cc(C)cc1C (stereo not given) | 1.51 h | 1.73 L/kg | 19.2 mL/min/kg | 1.58 h |  |
| Cc1ccc(N(CC2=NCCN2)c2cccc(O)c2)cc1 |  |  | 42 mL/min/kg | 2.5 h |  |

| SMILES | MRT | Vd | clearance | half-life | fraction unbound |
| --- | --- | --- | --- | --- | --- |
| CO[C@H]1C[C@@H](O[C@@H]2C(C)C(=O)O[C@H](C)[C@H](C)[C@H](O)C(C)C(=O)[C@@]3(CO3)C[C@H](C)[C@H](O[C@H]3O[C@@H](C)C[C@@H](N(C)C)[C@H]3O)[C@H]2C)O[C@@H](C)[C@@H]1O (stereo not given in full) | 1.41 h | 0.77 L/kg | 9.1 mL/min/kg | 1.05 h | 0.4 |
| COc1ccc(Cl)cc1C(=O)NCCc1ccc(S(=O)(=O)NC(=O)NC2CCCCC2)cc1 | 1.6 h | 0.08 L/kg |  | 2.2 h | 0.021 |
| C[C@@](O)(/C=C/[C@H]1CC=CC(=O)O1)[C@@H](C[C@@H](O)\C=C/C=C\C=C\CO)OP(=O)(O)O | 1.2 h | 0.086 L/kg | 1.2 mL/min/kg | 1.5 h |  |
| Cc1onc(-c2c(F)cccc2Cl)c1C(=O)NC1C(=O)N2C(C(=O)O)C(C)(C)S[C@H]12 (stereo not given in full) | 1.3 h | 0.19 L/kg | 2.4 mL/min/kg | 1.4 h | 0.043 |
| O=C(/C=C/c1ccc(O)cc1)C1=C(O)[C@](O)([C@@H]2O[C@H](CO)[C@@H](O)[C@H](O)[C@H]2O)C(O)=C([C@@H]2O[C@H](CO)[C@@H](O)[C@H](O)[C@H]2O)C1=O | 3.6 h | 0.2 L/kg | 1 mL/min/kg | 2.9 h | 0.22 |
| N/N=c1\[nH]ncc2ccccc12 | 0.29 h | 1.5 L/kg | 85 mL/min/kg | 1 h | 0.12 |
| CN(CCC(=O)/C=C/c1ccc(O)cc1)CCc1ccc2c(c1)OCO2 | 0.05 h | 2.13 L/kg | 713 mL/min/kg | 0.1 h |  |
| CC#C[C@]1(O)CC[C@H]2C3=C(C4=C(CC3)CC(=O)CC4)C(c3ccc(N(C)C)cc3)C[C@@]21C (stereo not given in full) | 15.7 h | 0.45 L/kg | 0.5 mL/min/kg | 16.6 h | 0.02 |
| CN(C)[C@@H]1C(O)=C(C(N)=O)C(=O)[C@@]2(O)C(O)=C3C(=O)c4c(O)ccc(Cl)c4[C@@H](O)[C@H]3C[C@@H]12 | 17 h | 1.3 L/kg | 1.1 mL/min/kg | 12 h | 0.59 |
| N=C(N)c1ccc(C(=O)NC(Cc2ccc(O)cc2)C(=O)N2CCC(OCC(=O)O)CC2)cc1 (stereo not given) | 2.5 h | 0.29 L/kg |  | 2.1 h | 0.94 |
| CCN1C[C@H]2CN(C)C[C@@H](C1)C2OC(=O)c1ccc(Cl)cc1 (stereo not given in full) | 8.8 h | 9 L/kg | 17 mL/min/kg | 8.6 h |  |
| CCNC(=O)OC1CCN(c2nncc3cc(OC)c(OC)cc23)CC1 | 0.25 h | 0.67 L/kg |  |  | 0.08 |
| CN(C)C[C@H](c1ccc(O)cc1)C1(O)CCCCC1 | 11.8 h | 3.5 L/kg | 4.9 mL/min/kg | 8.4 h | 0.7 |
| Cc1cc(C)c2c(c1)[C@@H](N(Cc1cc(C(F)(F)F)cc(C(F)(F)F)c1)c1nnn(C)n1)CCCN2CC1CCC(C(=O)O)CC1 (stereo not given in full) | 36.1 h | 1.82 L/kg | 0.84 mL/min/kg | 51.9 h | 0.001 |
| O=C1CN=C(c2ccccc2Cl)c2cc(Cl)ccc2N1 | 220 h | 2.2 L/kg | 0.17 mL/min/kg | 200 h | 0.051 |
| COc1ccc2cc1Oc1cc3c(cc1OC)CC[N+](C)(C)[C@H]3Cc1ccc(cc1)Oc1c(OC)c(OC)cc3c1[C@@H](C2)[N+](C)(C)CC3 | 5.6 h | 0.4 L/kg | 1.2 mL/min/kg | 5.1 h | 0.65 |
| CN(C)c1cc(NC(=O)CNC(C)(C)C)c(O)c2c1C[C@H]1C[C@H]3[C@H](N(C)C)C(O)=C(C(N)=O)C(=O)[C@@]3(O)C(O)=C1C2=O | 53 h | 12 L/kg | 3.8 mL/min/kg | 48 h | 0.2 |
